Assay results: paper PMC11881035, “^68Ga-Labeled Glycopeptides as Effective Tools for Liver Function Imaging” (Molecular Pharmaceutics, 2025)
Read-outs that look alike come from different tables or passages of the source. Where a SMILES comes first, the peptide text is derived from it. The star is where a group is joined. X1 = O=C(CCCCc1cn([C@@H]2O[C@H](CO)[C@H](O)[C@H](O)[C@H]2O)nn1)*; NODAGA = O=C(O)CN1CCN(CC(=O)O)CCN(C(CCC(=O)*)C(=O)O)CC1; GABA = NCCCC(=O)O

Legend:
[1] = complex stability in human blood serum; format: in vitro ADME
Experimental: (§1) The ^68Ge/^68Ga generator, devices for analytical HPLC, semipreparative HPLC, mass spectrometry, radio-thin layer chromatography, gamma counter and animal models for biodistribution and imaging studies including the image reconstruction procedures were the same as described before.[22] Stability assays in PBS and human blood serum, protein binding as well as determination of log D values followed established protocols.[25] Binding affinities (IC50) of selected ligands were determined in an isolated receptor-based assay according to a previously published procedure with minor modifications.[22] Dilutions of nonradioactive complexes were made with PBS + 0.1% BSA (10^–5–10^–12 M). Preparation of [^125I]I-Asialoorosomucoid which serves as the radioactive standard ligand has been published recently.[21]

log D determination = format: physicochemical; conditions: read-out: log D
Experimental: as §1

ASGR = biological target: T1, ASGR (Mus musculus, UniProt P24721+P34927); test: blocking experiment, coinjection of N-acetylgalactosamine, biodistribution in BALB/c mice; conditions: in vivo, 30 min p.i., 27.7 μmol N-acetylgalactosamine
T1 construct: from tissue; host or cells: liver and other organs of living healthy female BALB/c mice
T1 sequence (P34927 1-284): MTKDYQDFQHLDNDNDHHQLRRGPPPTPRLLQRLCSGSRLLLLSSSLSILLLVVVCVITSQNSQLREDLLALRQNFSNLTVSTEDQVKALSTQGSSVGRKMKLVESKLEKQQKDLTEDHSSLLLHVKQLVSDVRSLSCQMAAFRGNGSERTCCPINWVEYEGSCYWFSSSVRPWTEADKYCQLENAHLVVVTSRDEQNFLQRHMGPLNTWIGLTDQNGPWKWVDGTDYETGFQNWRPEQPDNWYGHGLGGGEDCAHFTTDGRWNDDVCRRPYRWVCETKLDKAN
T1 sequence (P24721 1-301): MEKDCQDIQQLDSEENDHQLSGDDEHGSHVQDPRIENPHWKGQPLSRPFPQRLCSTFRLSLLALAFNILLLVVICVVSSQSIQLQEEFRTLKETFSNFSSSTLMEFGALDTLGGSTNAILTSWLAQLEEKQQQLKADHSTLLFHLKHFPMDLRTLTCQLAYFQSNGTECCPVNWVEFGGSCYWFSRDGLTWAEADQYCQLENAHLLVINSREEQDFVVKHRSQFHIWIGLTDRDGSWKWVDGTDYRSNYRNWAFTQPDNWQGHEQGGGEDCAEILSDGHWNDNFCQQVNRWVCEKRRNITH
Experimental: Less liver uptake was found for [^68Ga]Ga-NODAGA-HexaLysan (55.5 ± 7.4% ID/g, 30 min p.i.) and least for [^68Ga]Ga-NODAGA-TriLysan (9.4 ± 2.0% ID/g, 30 min p.i.). […] However, an increasing activity accumulation in the intestine was found for [^68Ga]Ga-NODAGA-NonaLysan, [^68Ga]Ga-NODAGA-GalNAc-Nonalysan, and [^68Ga]Ga-NODAGA-HexaLysan over time. Nevertheless, liver-to-organ ratios were highest for [^68Ga]Ga-NODAGA-NonaLysan (Figure 3). Lower liver-to-organ ratios were found for the GalNAc derivative due to higher off-target binding in the pancreas, stomach, heart, muscle, lung, and femur. […] Coinjection of both nonamers with a large excess of N-acetylgalactosamine led to a statistically significant reduction of liver uptake indicating specific interactions of the tracers with their target (Figure 4). As a consequence of the reduced liver uptake also a reduction of the intestinal uptake was observed.
Figure 4 Data (% ID/g) from the blocking experiments using ^68Ga-labeled NODAGA-GalNAc-NonaLysan and NODAGA-NonaLysan in healthy BALB/c mice at 30 min p.i. Blocking was carried out using 27.7 μmol of N-acetylgalactosamine (**p ≤ 0.01; *p ≤ 0.05).

[2] = protein binding in human serum; format: in vitro ADME; conditions: for fraction unbound: human, serum, read-out: protein binding (%) (converted)
Experimental: as §1

complex stability in PBS = format: physicochemical
Experimental: as §1

[3] = biodistribution in healthy BALB/c mice; conditions: mouse, in vivo; for tissue uptake at 10 min: 10 min p.i.; for tissue uptake at 0.5 h: 30 min p.i.; for tissue uptake at 1 h: 60 min p.i.
Experimental: as §1
Animal experiments were performed in accordance with the Austrian animal experiments law (BGBl. I Nr. 114/2012) and the institution’s animal welfare standards as approved by the Austrian Federal Ministry of Education, Science and Research (BMBWF, 2022–0.311.708). Imaging experiments were conducted at Werner Siemens Imaging Center (Tübingen, Germany) according to the German animal welfare act as approved by the local authorities (R5/19 G, R09/21 G).
Figure 2 Biodistribution data (% ID/g) of ^68Ga-labeled NODAGA-GalNAc-NonaLysan, NODAGA-NonaLysan, NODAGA-HexaLysan, and NODAGA-TriLysan in healthy BALB/c mice at 10, 30, and 60 min p.i. (100 pmol, 1 MBq).

In the case of `NC(=O)CNC(=O)CNC(=O)[C@H](CCCCNC(=O)CCCCc1cn([C@@H]2O[C@H](CO)[C@H](O)[C@H](O)[C@H]2O)nn1)NC(=O)CNC(=O)CNC(=O)[C@H](CCCCNC(=O)CCCCc1cn([C@@H]2O[C@H](CO)[C@H](O)[C@H](O)[C@H]2O)nn1)NC(=O)CNC(=O)CNC(=O)[C@H](CCCCNC(=O)CCCCc1cn([C@@H]2O[C@H](CO)[C@H](O)[C@H](O)[C@H]2O)nn1)NC(=O)CNC(=O)CNC(=O)[C@H](CCCCNC(=O)CCCCc1cn([C@@H]2O[C@H](CO)[C@H](O)[C@H](O)[C@H]2O)nn1)NC(=O)CNC(=O)CNC(=O)[C@H](CCCCNC(=O)CCCCc1cn([C@@H]2O[C@H](CO)[C@H](O)[C@H](O)[C@H]2O)nn1)NC(=O)CNC(=O)CNC(=O)[C@H](CCCCNC(=O)CCCCc1cn([C@@H]2O[C@H](CO)[C@H](O)[C@H](O)[C@H]2O)nn1)NC(=O)CNC(=O)CNC(=O)[C@H](CCCCNC(=O)CCCCc1cn([C@@H]2O[C@H](CO)[C@H](O)[C@H](O)[C@H]2O)nn1)NC(=O)CNC(=O)CNC(=O)[C@H](CCCCNC(=O)CCCCc1cn([C@@H]2O[C@H](CO)[C@H](O)[C@H](O)[C@H]2O)nn1)NC(=O)CNC(=O)CNC(=O)[C@H](CCCCNC(=O)CCCCc1cn([C@@H]2O[C@H](CO)[C@H](O)[C@H](O)[C@H]2O)nn1)NC(=O)CCCNC(=O)CCC(C(=O)O)N1CCN(CC(=O)O)CCN(CC(=O)O)CC1` (stereo partly shown) [[^68Ga]Ga-NODAGA-NonaLysan, metal not drawn] ({NODAGA-GABA}-K(X1)GGK(X1)GGK(X1)GGK(X1)GGK(X1)GGK(X1)GGK(X1)GGK(X1)GGK(X1)GG-NH2), the “complex stability in serum (% intact ligand)” value ([1]; 2 min) is reported as 99.5 ± 0.1%, the “complex stability in serum (% intact ligand)” value ([1]; 30 min) is reported as 99.5 ± 0.1% and the “complex stability in serum (% intact ligand)” value ([1]; 60 min) is reported as 99.5 ± 0.1%. For the same compound, the “complex stability in serum (% intact ligand)” value ([1]; 120 min) was 99.6%, the logD (log D determination) was -4.06 and the tissue uptake at 0.5 h (ASGR; read-out: Blood uptake) was 0.3 ± 0.2 %ID/g. The tissue uptake at 0.5 h (ASGR; read-out: Femur uptake) was 0.2 ± 0.01 %ID/g, the tissue uptake at 0.5 h (ASGR; read-out: Heart uptake) was 0.3 ± 0.03 %ID/g and the tissue uptake at 0.5 h (ASGR; read-out: Intestine uptake) was 2.2 ± 0.2 %ID/g. For the same compound, the tissue uptake at 0.5 h (ASGR; read-out: Kidneys uptake) was 2 ± 0.8 %ID/g, the tissue uptake at 0.5 h (ASGR; read-out: Liver uptake) was 48 ± 1.1 %ID/g and the tissue uptake at 0.5 h (ASGR; read-out: Lung uptake) was 0.6 ± 0.1 %ID/g. For the same compound, the tissue uptake at 0.5 h (ASGR; read-out: Muscle uptake) was 0.4 ± 0.04 %ID/g, the tissue uptake at 0.5 h (ASGR; read-out: Pancreas uptake) was 0.5 ± 0.1 %ID/g and the tissue uptake at 0.5 h (ASGR; read-out: Spleen uptake) was 0.3 ± 0.2 %ID/g. For the same compound, the tissue uptake at 0.5 h (ASGR; read-out: Stomach uptake) was 0.9 ± 0.3 %ID/g, the “protein binding (%)” value ([2]; 120 min) was 21.5 ± 3.4% and the fraction unbound ([2]; 2 min) was 0.847. It also gave a fraction unbound ([2]; 30 min) of 0.717, a fraction unbound ([2]; 60 min) of 0.737 and a fraction unbound ([2]; 120 min) of 0.813. The “complex stability in PBS (% intact ligand)” value (complex stability in PBS; 2 min) was 99.6%, the “complex stability in PBS (% intact ligand)” value (complex stability in PBS; 30 min) was 99.4% and the “complex stability in PBS (% intact ligand)” value (complex stability in PBS; 60 min) was 99.3%. The “complex stability in PBS (% intact ligand)” value (complex stability in PBS; 120 min) was 99.3%, the tissue uptake at 10 min ([3]; read-out: Blood uptake) was 0.4 ± 0.03 %ID/g and the tissue uptake at 10 min ([3]; read-out: Femur uptake) was 0.3 ± 0.02 %ID/g. For the same compound, the tissue uptake at 10 min ([3]; read-out: Heart uptake) was 0.4 ± 0.04 %ID/g, the tissue uptake at 10 min ([3]; read-out: Intestine uptake) was 0.8 ± 0.2 %ID/g and the tissue uptake at 10 min ([3]; read-out: Kidneys uptake) was 1.2 ± 0.1 %ID/g. For the same compound, the tissue uptake at 10 min ([3]; read-out: Liver uptake) was 71.2 ± 0.4 %ID/g, the tissue uptake at 10 min ([3]; read-out: Lung uptake) was 0.9 ± 0.1 %ID/g and the tissue uptake at 10 min ([3]; read-out: Muscle uptake) was 0.6 ± 0.1 %ID/g. The tissue uptake at 10 min ([3]; read-out: Pancreas uptake) was 0.8 ± 0.1 %ID/g, the tissue uptake at 10 min ([3]; read-out: Spleen uptake) was 0.6 ± 0.2 %ID/g and the tissue uptake at 10 min ([3]; read-out: Stomach uptake) was 0.7 ± 0.2 %ID/g. It also gave a tissue uptake at 0.5 h ([3]; read-out: Blood uptake) of 0.2 ± 0.04 %ID/g, a tissue uptake at 0.5 h ([3]; read-out: Femur uptake) of 0.3 ± 0.1 %ID/g and a tissue uptake at 0.5 h ([3]; read-out: Heart uptake) of 0.4 ± 0.04 %ID/g. For the same compound, the tissue uptake at 0.5 h ([3]; read-out: Intestine uptake) was 5.6 ± 0.2 %ID/g, the tissue uptake at 0.5 h ([3]; read-out: Kidneys uptake) was 0.8 ± 0.03 %ID/g and the tissue uptake at 0.5 h ([3]; read-out: Liver uptake) was 79.6 ± 8 %ID/g. It also gave a tissue uptake at 0.5 h ([3]; read-out: Lung uptake) of 0.7 ± 0.1 %ID/g, a tissue uptake at 0.5 h ([3]; read-out: Muscle uptake) of 0.7 ± 0.03 %ID/g and a tissue uptake at 0.5 h ([3]; read-out: Pancreas uptake) of 0.9 ± 0.1 %ID/g. For the same compound, the tissue uptake at 0.5 h ([3]; read-out: Spleen uptake) was 0.2 ± 0.03 %ID/g, the tissue uptake at 0.5 h ([3]; read-out: Stomach uptake) was 1.2 ± 0.4 %ID/g and the tissue uptake at 1 h ([3]; read-out: Blood uptake) was 0.2 ± 0.1 %ID/g. It also gave a tissue uptake at 1 h ([3]; read-out: Femur uptake) of 0.2 ± 0.01 %ID/g, a tissue uptake at 1 h ([3]; read-out: Heart uptake) of 0.5 ± 0.1 %ID/g and a tissue uptake at 1 h ([3]; read-out: Intestine uptake) of 7.9 ± 0.5 %ID/g. The tissue uptake at 1 h ([3]; read-out: Kidneys uptake) was 1 ± 0.2 %ID/g, the tissue uptake at 1 h ([3]; read-out: Liver uptake) was 69.6 ± 1 %ID/g and the tissue uptake at 1 h ([3]; read-out: Lung uptake) was 0.9 ± 0.1 %ID/g. For the same compound, the tissue uptake at 1 h ([3]; read-out: Muscle uptake) was 0.6 ± 0.1 %ID/g, the tissue uptake at 1 h ([3]; read-out: Pancreas uptake) was 1.2 ± 0.2 %ID/g and the tissue uptake at 1 h ([3]; read-out: Spleen uptake) was 0.5 ± 0.03 %ID/g. For the same compound, the tissue uptake at 1 h ([3]; read-out: Stomach uptake) was 1.8 ± 1 %ID/g.
